In patent publication US7399493B2, “Anti-irritant botanicals” (priority 2004, dated 2008):

Assays:
HaCat keratinocytes = experiment: Retinoid-stimulated autocrine (RSA) clonal growth assay; assay type: cell-based, human; details: 10 μM, 48 hours after treatment, relative to untreated control
Procedure: Since retinoids irritate skin leading to epidermal hyperplasia, it is the inventors idea that plant extracts that act as inhibitors of retinoid -stimulated autocrine growth are themselves anti-irritants. This hypothesis was tested using an in vitro keratinocyte culture model.
An immortalized line of human epidermal kertatinocytes, HaCat keratinocytes, can be cultured in a serum-free culture medium. Sterile Petri dishes (35 mm^2) are seeded at 5,000 cells per cm^2 and placed in a humidified CO2 incubator at 37° C. for 3-5 days or until the culture reaches about 30% confluent monolayer growth. The dishes are washed once with ice-cold serum-free media lacking EGF and insulin, and refed 2.5 ml of serum-free culture medium containing 5 ug/ml insulin and retinyl acetate (RA, 3×10^−8 M).—Duplicate control dishes are fixed and stained with 0.2% crystal violet to record the—amount of clonal growth prior to refeeding with fresh RA-containing medium. Test—dishes refed RA and insulin are split into three groups in duplicate. Group A is refed on the RA plus insulin medium. Group B is refed RA plus insulin medium and a TRK inhibitor (PD 15356), and Group C is refed medium containing RA plus insulin and from 0.1 to 5% of a hydroalcoholic botanical extract. All dishes are adjusted to have the same final concentration of alcohol (1%). All dishes are placed back in the incubator for 2 and 4 days. […]

[1] = test system: irritating action of alpha-hydroxy acids (lactic and glycolic acids); details: Rosmarinic acid 5%; cited from earlier work

SMILES: O.O.O=c1c(O)c(-c2ccc(O)c(O)c2)oc2cc(O)cc(O)c12 [quercetin dihydrate]
- inhibition of RSA clonal growth (HaCat keratinocytes): completely inhibited

SMILES: O=C(/C=C/c1ccc(O)c(O)c1)O[C@H](Cc1ccc(O)c(O)c1)C(=O)O [Rosmarinic acid]
- reduction of the irritating action of alpha-hydroxy acids [1]: reduce by more than three-fold
